Data as given in patent US7465729B2, “Methods of treatment of menopause and perimenopause using eszopiclone” (Sepracor Inc., priority 2004, dated 2008).

Experiments:
conscious dogs = experiment: Dose escalation safety study, cardiovascular and respiratory parameters; conditions: for cardiotoxicity, as evidenced by the electrocardiogram (ECG) / effect on blood pressure / effect on heart rate / Blood gases and blood chemistries (pH, pCO2, pO2, hematocrit, and lactate): acute intravenous, 3, 5 and 12 mg/kg; for Blood gases and blood chemistries (pH, pCO2, pO2, hematocrit, and lactate): all dose groups
Method: To establish the safety of eszopiclone, a dose escalation study was carried out. Cardiovascular and respiratory parameters were evaluated in conscious dogs following acute intravenous administration of (R)-, (S)- or racemic zopiclone at three doses (3, 5 and 12 mg/kg).

mice [1] = experiment: Antimuscarinic activity in vivo: oxotremorine induced salivation; conditions: doses up to 300 mg/kg, p.o.
Method: (§1) Eszopiclone was evaluated for antimuscarinic activity in vivo.

plasma proteins = conditions: cited from earlier work
[2] = in vivo; cited from earlier work
mice [3] = experiment: Antimuscarinic activity in vivo: mydriasis; conditions: any dose tested, maximum dose 100 mg/kg, p.o.
Method: as §1

[4] = system: benzodiazepine receptor complex; conditions: cited from earlier work

SMILES	cardiotoxicity, as evidenced by the electrocardiogram (ECG) (conscious dogs)	effect on blood pressure (conscious dogs)	effect on heart rate (conscious dogs)	Blood gases and blood chemistries (pH, pCO2, pO2, hematocrit, and lactate) (conscious dogs)	hemodynamic effect (conscious dogs; intravenous, 12 mg/kg)	antagonism of oxotremorine induced salivation (mice [1])	binding to plasma proteins (plasma proteins)	absorption from the stomach [2]	mydriasis (mice [3])	binding to the benzodiazepine receptor complex [4]
CN1CCN(C(=O)O[C@@H]2c3nccnc3C(=O)N2c2ccc(Cl)cn2)CC1 [(R)-zopiclone]	No evidence of cardiotoxicity	no effect	no effect	remained unaffected	did not produce a consistent hemodynamic effect	neither (R)-, (S)-, nor racemic zopiclone significantly antagonized oxotremorine induced salivation				
CN1CCN(C(=O)OC2c3nccnc3C(=O)N2c2ccc(Cl)cn2)CC1 (racemic) [racemic zopiclone]	No evidence of cardiotoxicity	dose dependent, transient decreases in blood pressure	compensatory increase in heart rate	remained unaffected		neither (R)-, (S)-, nor racemic zopiclone significantly antagonized oxotremorine induced salivation	not highly bound	well absorbed	did not produce mydriasis	binds to the benzodiazepine receptor complex, or to a site linked closely to this receptor complex
